Assay: UV/VIS and fluorescence studies (spectral properties of the probes in four solvents)
Assay type: physicochemical
Conditions: for Absorbance maxima (nm) / Emission maxima (nm): 1 µM or 0,1 µM; for fluorescence intensities: compared with probes 2 and 4 with pyranone motive
Protocol: Spectral properties of fluorescent probes 2, 4, 6, 8 and 10 (2 and 4 are for reference only) Spectral characteristics of probes were obtained by using a UV/VIS and fluorescence studies. The probes were measured in four solvents (DMSO, methanol, ethanol and phosphate buffer). Each LysoSers was at first dissolved in DMSO 1mM stock solution which was diluted to a final concentration 1 µM or 0,1 µM.
All prepared probes have absorption maximum in the ultraviolet range of 350-400 nm and emission maximum in the range of 400 to 450 nm. […] Table 1. Absorption and emission maxima of probes 2, 4, 6, 8 and 10 in different solvents (probes 2 and 4 are for reference only)

Row | SMILES | Absorbance maxima (nm) (solvent DMSO) | Emission maxima (nm) (solvent DMSO) | Absorbance maxima (nm) (solvent EtOH) | Emission maxima (nm) (solvent EtOH) | Absorbance maxima (nm) (solvent MeOH) | Emission maxima (nm) (solvent MeOH) | Absorbance maxima (nm) (solvent PBS) | Emission maxima (nm) (solvent PBS) | fluorescence intensities
1 | CCCCCCN1C(=O)c2cccc3c2c(cc2oc(=O)c(C(=O)NCCN(C)C)cc23)C1=O [Probe 2] | 379 | 440 | 388 | 448 | 387 | 442 | 389 | 448 | –
2 | CCCCCCN1C(=O)c2cccc3c2c(cc2cc(C(=O)NCCN(C)C)c(=O)oc23)C1=O [Probe 4] | 368 | 432 | 319 | 434 | 317 | 435 | 320 | 437 | –
3 | CCCCCCN1C(=O)c2cccc3c2c(cc2oc(C(=O)NCCN(C)C)cc23)C1=O [Probe 6] | 373 | 424 | 376 | 422 | 373 | 421 | 373 | 429 | higher fluorescence intensities
4 | CCCCCCN1C(=O)c2cccc3c2c(cc2cc(C(=O)NCCN(C)C)oc23)C1=O [Probe 8] | 368 | 416 | 341 | 415 | 341 | 416 | 360 | 428 | higher fluorescence intensities
5 | CN(C)CCNC(=O)c1cc2c(cc3c4c(cccc42)C(=O)N(C)C3=O)o1 [Probe 10] | 377 | 435 | 365 | 410 | 372 | 420 | 377 | 431 | higher fluorescence intensities
